{"source": "paper PMC5729109", "about": "(Journal of the American Chemical Society, 2017)", "key": {"PP1, PP2A, PP4 and PP5": {"tested_on": "PP1, PP2A, PP4 and PP5", "conditions": "cited from earlier work"}, "[1]": {"target": "PP1 Cys127Ser mutant (C127SPP1) (Homo sapiens, UniProt P62136, C127S)", "sequence (P62136 whole entry C127S)": "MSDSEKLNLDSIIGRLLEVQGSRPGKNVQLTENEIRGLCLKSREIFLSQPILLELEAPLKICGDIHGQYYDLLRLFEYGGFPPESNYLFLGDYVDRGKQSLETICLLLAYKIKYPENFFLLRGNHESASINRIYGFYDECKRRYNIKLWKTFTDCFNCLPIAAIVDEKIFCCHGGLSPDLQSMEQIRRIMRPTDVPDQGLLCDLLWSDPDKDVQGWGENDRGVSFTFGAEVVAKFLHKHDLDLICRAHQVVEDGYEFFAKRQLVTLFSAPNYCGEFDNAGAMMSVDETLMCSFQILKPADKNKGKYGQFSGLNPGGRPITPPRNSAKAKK", "type": "biochemical"}, "PP1 [2]": {"target": "T1, PP1 (Homo sapiens, UniProt P62136)", "T1 sequence (P62136 whole entry)": "as the sequence (P62136 whole entry C127S) above, with S127C counted along it", "assay": "[32P]-phosphohistone dephosphorylation assay, PP1", "type": "biochemical"}, "PP2A [3]": {"target": "T2, PP2A (Homo sapiens, UniProt P67775)", "T2 sequence (P67775 whole entry)": "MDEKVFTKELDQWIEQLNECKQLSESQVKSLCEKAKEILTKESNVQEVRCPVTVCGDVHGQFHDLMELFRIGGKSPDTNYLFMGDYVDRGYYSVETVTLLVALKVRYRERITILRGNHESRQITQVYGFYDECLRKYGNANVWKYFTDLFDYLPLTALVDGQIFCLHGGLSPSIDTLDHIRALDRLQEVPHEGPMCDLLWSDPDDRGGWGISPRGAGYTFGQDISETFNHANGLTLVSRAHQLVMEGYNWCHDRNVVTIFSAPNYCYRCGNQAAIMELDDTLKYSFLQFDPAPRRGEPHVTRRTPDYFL", "assay": "[32P]-phosphohistone dephosphorylation assay, PP2A", "type": "biochemical"}, "PP5": {"target": "PP5 (Homo sapiens, UniProt P53041)", "sequence (P53041 whole entry)": "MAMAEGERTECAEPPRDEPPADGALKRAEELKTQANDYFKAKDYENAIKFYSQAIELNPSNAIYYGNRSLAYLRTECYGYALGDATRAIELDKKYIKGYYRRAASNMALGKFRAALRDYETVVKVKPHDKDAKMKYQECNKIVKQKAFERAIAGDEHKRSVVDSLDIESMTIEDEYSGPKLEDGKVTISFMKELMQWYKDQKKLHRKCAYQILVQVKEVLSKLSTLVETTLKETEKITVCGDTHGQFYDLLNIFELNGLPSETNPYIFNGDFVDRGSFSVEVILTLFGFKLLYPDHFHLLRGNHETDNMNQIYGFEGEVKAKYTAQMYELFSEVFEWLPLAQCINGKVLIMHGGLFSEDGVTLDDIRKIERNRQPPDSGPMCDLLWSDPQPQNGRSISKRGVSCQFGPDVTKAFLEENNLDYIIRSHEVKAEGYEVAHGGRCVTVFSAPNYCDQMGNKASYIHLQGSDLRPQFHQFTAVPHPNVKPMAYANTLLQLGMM", "assay": "[32P]-phosphohistone dephosphorylation assay, PP5", "type": "biochemical"}, "PP4": {"target": "PP4 (Homo sapiens, UniProt P60510)", "sequence (P60510 whole entry)": "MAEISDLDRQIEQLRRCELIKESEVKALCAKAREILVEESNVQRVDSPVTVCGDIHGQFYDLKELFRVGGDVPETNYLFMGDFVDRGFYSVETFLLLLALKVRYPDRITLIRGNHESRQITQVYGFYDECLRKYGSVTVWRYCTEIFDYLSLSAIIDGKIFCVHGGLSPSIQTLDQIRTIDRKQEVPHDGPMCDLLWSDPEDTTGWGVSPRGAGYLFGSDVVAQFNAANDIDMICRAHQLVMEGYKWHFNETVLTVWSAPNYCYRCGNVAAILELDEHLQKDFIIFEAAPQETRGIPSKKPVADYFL", "assay": "DiFMUP dephosphorylation assay, PP4", "type": "biochemical"}, "PP6": {"target": "PP6 (Homo sapiens, UniProt O00743)", "sequence (O00743 whole entry)": "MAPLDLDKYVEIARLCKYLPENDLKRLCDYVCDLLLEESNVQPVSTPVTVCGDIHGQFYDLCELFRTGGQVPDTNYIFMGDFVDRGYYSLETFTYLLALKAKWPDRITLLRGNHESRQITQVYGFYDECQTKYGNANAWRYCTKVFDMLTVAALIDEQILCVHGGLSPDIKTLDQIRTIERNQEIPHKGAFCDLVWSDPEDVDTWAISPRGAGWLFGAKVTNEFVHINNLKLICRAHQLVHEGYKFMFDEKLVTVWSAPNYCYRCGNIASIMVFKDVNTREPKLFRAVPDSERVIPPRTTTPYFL", "assay": "DiFMUP dephosphorylation assay, PP6", "type": "biochemical"}, "PP2B": {"target": "PP2B (Homo sapiens, UniProt Q08209)", "sequence (P63098 2-170, other chains not shown)": "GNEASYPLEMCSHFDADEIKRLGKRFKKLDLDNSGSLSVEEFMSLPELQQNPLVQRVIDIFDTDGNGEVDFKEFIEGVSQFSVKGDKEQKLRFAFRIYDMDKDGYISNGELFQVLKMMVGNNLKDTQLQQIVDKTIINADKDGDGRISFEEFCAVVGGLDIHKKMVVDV", "assay": "DiFMUP dephosphorylation assay, PP2B", "type": "biochemical"}, "SHP2 [4]": {"tested_on": "SHP2", "assay": "Tyrosine phosphatase inhibition, SHP2", "type": "biochemical", "conditions": "IC50 SHP2 / IC50 PP1"}, "SHP1 [5]": {"tested_on": "SHP1", "assay": "Tyrosine phosphatase inhibition, SHP1", "type": "biochemical", "conditions": "IC50 SHP1 / IC50 PP1"}, "Lyp [6]": {"tested_on": "Lyp", "assay": "Tyrosine phosphatase inhibition, Lyp", "type": "biochemical", "conditions": "IC50 Lyp / IC50 PP1"}, "PTP1B [7]": {"tested_on": "PTP1B", "assay": "Tyrosine phosphatase inhibition, PTP1B", "type": "biochemical", "conditions": "IC50 PTP1B / IC50 PP1"}, "PTPα [8]": {"tested_on": "PTPα", "assay": "Tyrosine phosphatase inhibition, PTPα", "type": "biochemical", "conditions": "IC50 PTPα / IC50 PP1"}, "HePTP [9]": {"tested_on": "HePTP", "assay": "Tyrosine phosphatase inhibition, HePTP", "type": "biochemical", "conditions": "IC50 HePTP / IC50 PP1"}, "CD45 [10]": {"tested_on": "CD45", "assay": "Tyrosine phosphatase inhibition, CD45", "type": "biochemical", "conditions": "IC50 CD45 / IC50 PP1"}, "VHR [11]": {"tested_on": "VHR", "assay": "Tyrosine phosphatase inhibition, VHR", "type": "biochemical", "conditions": "IC50 VHR / IC50 PP1"}, "CDC14A [12]": {"tested_on": "CDC14A", "assay": "Tyrosine phosphatase inhibition, CDC14A", "type": "biochemical", "conditions": "IC50 CDC14A / IC50 PP1"}, "PPP family members": {"tested_on": "PPP family members", "assay": "In vitro dephosphorylation assays across PPP family members", "type": "biochemical"}, "PP1 [13]": {"target": "T1, PP1", "assay": "Lineweaver-Burk kinetic analysis, PP1", "type": "biochemical", "conditions": "WT PP1; indicative of irreversible enzyme inhibition; Figure S6"}, "PP1 (Cys127)": {"target": "PP1 (Cys127) (Homo sapiens, UniProt P62136)", "sequence (P62136 7-300)": "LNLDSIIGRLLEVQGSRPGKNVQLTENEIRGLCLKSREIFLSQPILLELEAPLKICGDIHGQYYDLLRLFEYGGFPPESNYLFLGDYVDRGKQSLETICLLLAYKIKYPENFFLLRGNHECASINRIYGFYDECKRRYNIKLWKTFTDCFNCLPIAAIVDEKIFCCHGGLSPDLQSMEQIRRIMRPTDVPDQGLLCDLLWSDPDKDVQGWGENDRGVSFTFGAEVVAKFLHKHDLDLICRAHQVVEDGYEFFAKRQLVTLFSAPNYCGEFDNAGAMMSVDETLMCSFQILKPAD", "assay": "ESI mass spectrometry of covalent PP1:TTN adduct, time-course", "type": "binding", "conditions": "ESI-MS time-course analysis"}, "SHP2 [14]": {"tested_on": "SHP2", "conditions": "tyrosine phosphatase; cited from earlier work"}, "SHP1 [15]": {"tested_on": "SHP1", "conditions": "tyrosine phosphatase; cited from earlier work"}, "Lyp [16]": {"tested_on": "Lyp", "conditions": "tyrosine phosphatase; cited from earlier work"}, "PTP1B [17]": {"tested_on": "PTP1B", "conditions": "tyrosine phosphatase; cited from earlier work"}, "PTPα [18]": {"tested_on": "PTPα", "conditions": "tyrosine phosphatase; cited from earlier work"}, "HePTP [19]": {"tested_on": "HePTP", "conditions": "tyrosine phosphatase; cited from earlier work"}, "CD45 [20]": {"tested_on": "CD45", "conditions": "tyrosine phosphatase; cited from earlier work"}, "VHR [21]": {"tested_on": "VHR", "conditions": "tyrosine phosphatase; cited from earlier work"}, "CDC14A [22]": {"tested_on": "CDC14A", "conditions": "tyrosine phosphatase; cited from earlier work"}, "PP2A [23]": {"target": "T2, PP2A", "conditions": "cited from earlier work"}}, "note": "Several values for one entry are separate records, joined by “and”; a condition that tells them apart may be missing. Equal values may be shown once. Marks after values point to notes of the source that are not given here. *1 amine or outer side, *2 acyl side, *3 side chain or, on linkers, in order; H or OH if unused. Where a SMILES comes first, the peptide text is derived from it. Bridges are numbered along the chain shown (N, C = ends). [ ]: non-standard residue; d: D form. Adda = CO[C@@H](Cc1ccccc1)[C@@H](C)/C=C(C)/C=C/[C@H](N[*:1])[C@H](C)C(=O)[*:2]; dAsp(3S-Me) = C[C@H](C(=O)[*:3])[C@@H](N[*:1])C(=O)[*:2]; d(γGlu) = O=C(O)[C@@H](CCC(=O)[*:2])N[*:1]; NMeDha = C=C(NC)C(=O)O", "data": [{"molecule": "CO[C@H]([C@H](O)CC(=O)[C@@H](C)[C@@H](O)CC[C@@H](C)[C@@H]1O[C@]2(CC[C@@H](C)[C@H](CC[C@H](C)C(C)=O)O2)CC[C@@H]1C)[C@H](OC(=O)C[C@@H](O)C1=C(C)C(=O)OC1=O)C(C)C", "note": "[TTM, tautomycin]", "values": [{"measurement": "Inhibition of PP1, PP2A, PP4 and PP5 compared", "setting": "PP1, PP2A, PP4 and PP5", "result": "to a similar extent"}]}, {"molecule": "C=C1C(=O)N[C@H](C)C(=O)N[C@@H](CC(C)C)C(=O)N[C@@H](C(=O)O)[C@H](C)C(=O)N[C@@H](CCCNC(=N)N)C(=O)N[C@@H](/C=C/C(C)=C/[C@H](C)[C@H](Cc2ccccc2)OC)[C@H](C)C(=O)N[C@@H](C(=O)O)CCC(=O)N1C", "note": "[Microcystin-LR] (R[Adda][d(γGlu)][NMeDha][dA]L[dAsp(3S-Me)]-OH; lactam N-7)", "values": [{"measurement": "Change of IC50 for C127SPP1 compared to WT PP1", "setting": "[1]", "result": "no difference"}]}, {"molecule": "C=C/C(=C/C(=O)C[C@H](C)C[C@@H](C)CC[C@H](O)[C@H](C)C(=O)C[C@@H](O)[C@H](C)[C@@H](C)OC(=O)C[C@@H](O)C1=C(C)C(=O)OC1=O)CC", "note": "[TTN, Tautomycetin]", "values": [{"measurement": "IC50", "setting": "PP1 [2]", "result": "0.038 ± 0.009", "unit": "nM"}, {"measurement": "IC50", "setting": "PP2A [3]", "result": "5.3 ± 0.26", "unit": "nM"}, {"measurement": "Fold change (relative to PP1)", "setting": "PP2A [3]; IC50 PP2A / IC50 PP1, [32P]-phosphohistone", "result": "139 ^b fold"}, {"measurement": "IC50", "setting": "PP5", "result": "11.9 ± 0.05", "unit": "nM"}, {"measurement": "Fold change (relative to PP1)", "setting": "PP5; IC50 PP5 / IC50 PP1, [32P]-phosphohistone", "result": "313 ^b fold"}, {"measurement": "IC50", "setting": "PP4", "result": "44.4 ± 4.2", "unit": "nM"}, {"measurement": "Fold change (relative to PP1)", "setting": "PP4; IC50 PP4 / IC50 PP1", "result": 1168, "unit": "fold"}, {"measurement": "IC50", "setting": "PP6", "result": "101 ± 7", "unit": "nM"}, {"measurement": "Fold change (relative to PP1)", "setting": "PP6; IC50 PP6 / IC50 PP1", "result": 2657, "unit": "fold"}, {"measurement": "IC50", "setting": "PP2B", "result": "17.5 ± 3.2", "unit": "µM"}, {"measurement": "Fold change (relative to PP1)", "setting": "PP2B; IC50 PP2B / IC50 PP1", "result": ">10^5 fold"}, {"measurement": "Fold change (relative to PP1)", "setting": "SHP2 [4]", "result": ">10^4 fold"}, {"measurement": "Fold change (relative to PP1)", "setting": "SHP1 [5]", "result": ">10^5 fold"}, {"measurement": "Fold change (relative to PP1)", "setting": "Lyp [6]", "result": ">10^5 fold"}, {"measurement": "Fold change (relative to PP1)", "setting": "PTP1B [7]", "result": ">10^5 fold"}, {"measurement": "Fold change (relative to PP1)", "setting": "PTPα [8]", "result": ">10^5 fold"}, {"measurement": "Fold change (relative to PP1)", "setting": "HePTP [9]", "result": ">10^5 fold"}, {"measurement": "Fold change (relative to PP1)", "setting": "CD45 [10]", "result": ">10^5 fold"}, {"measurement": "Fold change (relative to PP1)", "setting": "VHR [11]", "result": ">10^5 fold"}, {"measurement": "Fold change (relative to PP1)", "setting": "CDC14A [12]", "result": ">10^5 fold"}, {"measurement": "Selectivity (potency) for PP1 versus any other PPP tested", "setting": "PPP family members", "result": "> 100 fold and 100 fold"}, {"measurement": "Fold higher IC50 than for PP1, the other PPPs tested", "setting": "PPP family members; PPPs other than PP2A and PP5", "result": "> 10^3 fold"}, {"measurement": "Change of IC50 for C127SPP1 compared to WT PP1", "setting": "[1]", "result": "~10", "unit": "fold"}, {"measurement": "Mode of inhibition (Lineweaver-Burk kinetic analysis)", "setting": "[1]; C127SPP1, Figure S6", "result": "competitive inhibition"}, {"measurement": "Mode of inhibition (Lineweaver-Burk kinetic analysis)", "setting": "PP1 [13]", "result": "noncompetitive inhibition"}, {"measurement": "Time of covalent adduct formation with PP1", "setting": "PP1 (Cys127)", "result": "less than 10 min"}, {"measurement": "IC50", "setting": "SHP2 [14]", "result": "2900 ± 200", "unit": "nM"}, {"measurement": "IC50", "setting": "SHP1 [15]", "result": "14.6 ± 0.1", "unit": "µM"}, {"measurement": "IC50", "setting": "Lyp [16]", "result": "20 ± 2", "unit": "µM"}, {"measurement": "IC50", "setting": "PTP1B [17]", "result": "41.2 ± 4.4", "unit": "µM"}, {"measurement": "IC50", "setting": "PTPα [18]", "result": "> 50", "unit": "µM"}, {"measurement": "IC50", "setting": "HePTP [19]", "result": "> 50", "unit": "µM"}, {"measurement": "IC50", "setting": "CD45 [20]", "result": "> 50", "unit": "µM"}, {"measurement": "IC50", "setting": "VHR [21]", "result": "> 50", "unit": "µM"}, {"measurement": "IC50", "setting": "CDC14A [22]", "result": "> 50", "unit": "µM"}]}, {"molecule": "C[C@@](O)(/C=C/[C@H]1CC=CC(=O)O1)[C@@H](C[C@@H](O)\\C=C/C=C\\C=C\\CO)OP(=O)(O)O", "note": "[fostriecin]", "values": [{"measurement": "Inhibition of PP2A compared with PP4", "setting": "PP2A [23]", "result": "nearly the same extent"}]}]}
